Assay results: article PMC11213733, “Computational approaches identify a transcriptomic fingerprint of drug-induced structural cardiotoxicity” (Cell Biology and Toxicology, 2024)
Structures can show the parent of a compound that is named as a salt.

Columns and labels:
[1] = ref FDA label, cited from earlier work; for Structural cardiotoxin?: FDA label references heart failure or a decrease in left ventricular ejection fraction; for Functional cardiotoxin?: compound annotation
cardiac microtissues = assay: Transcriptomic profiling (mRNA-seq) and DESeq2 differential gene expression analysis in cardiac microtissues; conditions: absolute log2(Fold-Change) > 1, FDR p ≤ 0.05; for number of significant differentially expressed genes, 6hr high / number of significant differentially expressed genes, 48hr high / number of significant differentially expressed genes, 72hr high: high concentration; for number of significant differentially expressed genes, 6hr low / number of significant differentially expressed genes, 48hr low / number of significant differentially expressed genes, 72hr low: low concentration

SMILES | Structural cardiotoxin? [1] | Functional cardiotoxin? [1] | other results
Cc1cc(Nc2ncc(Cl)c(Nc3ccccc3S(=O)(=O)C(C)C)n2)c(OC(C)C)cc1C1CCNCC1 [Ceritinib] | N | Y | 
COc1cccc2c1C(=O)c1c(O)c3c(c(O)c1C2=O)C[C@@](O)(C(C)=O)C[C@@H]3O[C@H]1C[C@H](N)[C@H](O)[C@H](C)O1 [Daunorubicin] | Y | Y | 
C[C@@H]1C[C@H]2[C@@H]3CCC4=CC(=O)C=C[C@]4(C)[C@@]3(F)[C@@H](O)C[C@]2(C)[C@@]1(O)C(=O)CO [Dexamethasone] | N | N | 
CN(C)C/C=C/C(=O)Nc1cc2c(Nc3ccc(F)c(Cl)c3)ncnc2cc1O[C@H]1CCOC1 [Afatinib] | N | N | 
COc1cccc2c1C(=O)c1c(O)c3c(c(O)c1C2=O)C[C@@](O)(C(=O)CO)C[C@@H]3O[C@H]1C[C@H](N)[C@@H](O)[C@H](C)O1 [Epirubicin] | Y | Y | 
CN1CCN(C2=Nc3cc(Cl)ccc3Nc3ccccc32)CC1 [Clozapine] |  | Y | number of significant differentially expressed genes, 6hr high (cardiac microtissues): 16; number of significant differentially expressed genes, 6hr low (cardiac microtissues): 2; number of significant differentially expressed genes, 48hr high (cardiac microtissues): 25; number of significant differentially expressed genes, 48hr low (cardiac microtissues): 4; number of significant differentially expressed genes, 72hr high (cardiac microtissues): 60; number of significant differentially expressed genes, 72hr low (cardiac microtissues): 1
N#CC[C@H](C1CCCC1)n1cc(-c2ncnc3[nH]ccc23)cn1 [Ruxolitinib] | N | N | 
CS(=O)(=O)c1ccc(C2=C(c3ccccc3)C(=O)OC2)cc1 [Rofecoxib] | Y | Y | 
CCCCNC(=O)NS(=O)(=O)c1ccc(C)cc1 [Tolbutamide] | N | N | 
Nc1ccc(S(=O)(=O)c2ccc(N)cc2)cc1 [Dapsone] | N | N | 
Cc1ccc(-c2cc(C(F)(F)F)nn2-c2ccc(S(N)(=O)=O)cc2)cc1 [Celecoxib] | Y | Y | 
Cc1ccc(C(=O)Nc2ccc(CN3CCN(C)CC3)c(C(F)(F)F)c2)cc1C#Cc1cnc2cccnn12 [Ponatinib] | Y | Y | 
CN(C)CCN(Cc1cccs1)c1ccccn1 [Methapyrilene] | N |  | 
O=P1(N(CCCl)CCCl)NCCCO1 (stereo not shown) [Cyclophosphamide] | Y | Y | 
CC1(C)S[C@@H]2[C@H](NC(=O)[C@H](N)c3ccc(O)cc3)C(=O)N2[C@H]1C(=O)O [Amoxacillin] | N | N | 
Cc1ccc(C)c(OCCCC(C)(C)C(=O)O)c1 [Gemfibrozil] | N | N | 
Nc1nc2c(ncn2COCCO)c(=O)[nH]1 [Acyclovir] |  |  | number of significant differentially expressed genes, 6hr high (cardiac microtissues): 3; number of significant differentially expressed genes, 6hr low (cardiac microtissues): 4; number of significant differentially expressed genes, 48hr high (cardiac microtissues): 0; number of significant differentially expressed genes, 48hr low (cardiac microtissues): 0; number of significant differentially expressed genes, 72hr high (cardiac microtissues): 0; number of significant differentially expressed genes, 72hr low (cardiac microtissues): 0
COC(=O)[C@@H]1CC2=CC(=O)CC[C@]2(C)[C@@]23O[C@@H]2C[C@@]2(C)[C@@H](CC[C@@]24CCC(=O)O4)[C@H]13 [Eplerenone] | N | Y | 
O=C(C1CCCCC1)N1CC(=O)N2CCc3ccccc3C2C1 (stereo not shown) [Praziquantel] | N | N | 
O=C1CC2(CCCC2)CC(=O)N1CCCCN1CCN(c2ncccn2)CC1 [Buspirone HCl] | N | N | number of significant differentially expressed genes, 6hr high (cardiac microtissues): 42; number of significant differentially expressed genes, 6hr low (cardiac microtissues): 10; number of significant differentially expressed genes, 48hr high (cardiac microtissues): 14; number of significant differentially expressed genes, 48hr low (cardiac microtissues): 6; number of significant differentially expressed genes, 72hr high (cardiac microtissues): 8; number of significant differentially expressed genes, 72hr low (cardiac microtissues): 4
O=C1C[C@@H](c2ccc(O)cc2)Oc2cc(O)cc(O)c21 [Narigenin, Naringenin] | N | N | 
CCn1cc(C(=O)O)c(=O)c2cc(F)c(N3CCNC(C)C3)c(F)c21 (stereo not shown) [Lomefloxacin] | Y | Y | 
C[C@@H](Oc1cc(-c2cnn(C3CCNCC3)c2)cnc1N)c1c(Cl)ccc(F)c1Cl [Crizotinib] | N | Y | 
NC[C@H]1O[C@H](O[C@H]2[C@H](O)[C@@H](O[C@H]3O[C@H](CO)[C@@H](O)[C@H](N)[C@H]3O)[C@H](N)C[C@@H]2N)[C@H](N)C[C@@H]1O [Tobramycin] | N | N | 
CC(C)NCC(O)c1ccc(O)c(O)c1 (stereo not shown) [Isoproterenol HCl] | Y | Y | 
CCc1ccc(CCOc2ccc(CC3SC(=O)NC3=O)cc2)nc1 (stereo not shown) [Pioglitazone] | Y | Y | 
COC(=O)Nc1nc2ccc(C(=O)c3ccccc3)cc2[nH]1 [Mebendazole] |  |  | number of significant differentially expressed genes, 6hr high (cardiac microtissues): 195; number of significant differentially expressed genes, 6hr low (cardiac microtissues): 27; number of significant differentially expressed genes, 48hr high (cardiac microtissues): 407; number of significant differentially expressed genes, 48hr low (cardiac microtissues): 79; number of significant differentially expressed genes, 72hr high (cardiac microtissues): 536; number of significant differentially expressed genes, 72hr low (cardiac microtissues): 192
Cc1ccc(Nc2nccc(N(C)c3ccc4c(C)n(C)nc4c3)n2)cc1S(N)(=O)=O [Pazopanib] | N | Y | 
CNC(=O)c1ccccc1Sc1ccc2c(/C=C/c3ccccn3)n[nH]c2c1 [Axitinib] | N | Y | 
